Here are results for 2 molecules from patent publication EP0188647B1, “Acylated derivatives of cytidine-diphosphate-choline, process for their preparation and their therapeutic use” (NEOPHARMED S.p.A., priority 1985, dated 1986).

Where [1] appears, read: control experiment, oral, 20 µmoles/kg, after 30 minutes, intestinal level.

From the text: The required data refer to the distribution of radioactivity in the animal and also to structural identity of the radioactive molecular species present in some of the more significant biological samples (liver, brain, faeces, gastric and intestinal contents).
The scheme of extraction consents the recovery of three different classes of labelled metabolites: • 1) Hydrosoluble metabolites, subsequently analysed by HPLC. • 2) Metabolites with high molecular weights, proteins and nucleic acids, recovered by thermal denaturation in a hydroalcoholic environment. • 3) Lipids, subsequently purified by chromatography on silica.

Consider `C[N+](C)(C)CCOP(=O)(O)OP(=O)([O-])OC[C@H]1O[C@@H](n2ccc(N)nc2=O)[C@H](O)[C@@H]1O` [CDP-choline, Cytidine-diphosphate-choline], for which, under setting [1], the “double labelled CDP-choline administered found at intestinal level” value came out at 0.2% and the “radioactivity present in the dose found at intestinal level” value is listed as “not more than 5%”.

As to `CCCCC(=O)Nc1ccn([C@@H]2O[C@H](COP(=O)(O)OP(=O)([O-])OCC[N+](C)(C)C)[C@@H](OC(=O)CCCC)[C@H]2OC(=O)CCCC)c(=O)n1` [trivaleryl-CDP-choline, N4-valeryl-2',3'-di-O-valeryl-CDP-choline], where the note is “rat, in vivo, po”, the “time of maximum uptake in the plasmatic component and in the organs” value was 5 h; the “total radioactivity, of that present in the administered dose” value was 30%.
